Values quoted from earlier work, collected in patent US6949636B2, “Intron/exon structure of the human and mouse β3-adrenergic receptor genes” (Centre National de la Recherche Scientifique, priority 1989, dated 2005).

Legend:
[1] = target: mouse β3-adrenergic receptor (Mus musculus, UniProt P25962); conditions: background statement, earlier filing / Nahmias et al.
β3-adrenergic receptor = β3-adrenergic receptor (Homo sapiens, UniProt P13945); conditions: activity increases in the order salbutamol, BRL 28410, BRL 37344, (1)-isoproterenol; from earlier filings
Sequence of β3-adrenergic receptor (P13945 1-402 limits assumed): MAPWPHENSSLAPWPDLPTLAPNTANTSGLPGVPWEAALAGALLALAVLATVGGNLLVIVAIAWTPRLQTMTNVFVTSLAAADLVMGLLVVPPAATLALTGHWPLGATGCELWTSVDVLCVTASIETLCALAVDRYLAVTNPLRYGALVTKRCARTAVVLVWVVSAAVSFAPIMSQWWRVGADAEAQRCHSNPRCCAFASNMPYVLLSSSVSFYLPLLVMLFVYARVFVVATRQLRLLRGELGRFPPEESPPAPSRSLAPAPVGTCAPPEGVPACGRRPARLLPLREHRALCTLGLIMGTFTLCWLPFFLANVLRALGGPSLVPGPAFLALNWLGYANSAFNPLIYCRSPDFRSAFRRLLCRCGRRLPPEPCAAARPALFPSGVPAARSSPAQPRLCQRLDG

Sequence of mouse β3-adrenergic receptor (P25962 1-388 limits assumed): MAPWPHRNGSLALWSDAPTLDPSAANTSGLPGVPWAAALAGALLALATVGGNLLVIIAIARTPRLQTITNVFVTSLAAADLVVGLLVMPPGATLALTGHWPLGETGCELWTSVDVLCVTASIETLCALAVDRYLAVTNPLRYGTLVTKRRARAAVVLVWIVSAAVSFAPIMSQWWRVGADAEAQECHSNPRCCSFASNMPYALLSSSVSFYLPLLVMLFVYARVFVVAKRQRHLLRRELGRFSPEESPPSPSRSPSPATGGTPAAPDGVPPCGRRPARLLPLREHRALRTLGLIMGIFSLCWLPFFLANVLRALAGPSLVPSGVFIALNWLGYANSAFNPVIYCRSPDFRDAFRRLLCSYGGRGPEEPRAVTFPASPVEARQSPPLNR

Structure (SMILES) | activation of mouse β3-adrenergic receptor [1] | activating adenylate cyclase in the presence of an agonist (β3-adrenergic receptor)
CC(C)(C)NCC(O)COc1cccc2[nH]c(=O)[nH]c12 (centres unmarked) [CGP 12177A] | can be activated | –
CC(C)(C)NCC(O)c1ccc(O)c(CO)c1 (centres unmarked) [salbutamol] | – | activating adenylate cyclase
C[C@H](Cc1ccc(C(=O)O)cc1)NC[C@H](O)c1ccccc1 [BRL 28410] | – | activating adenylate cyclase

More lines, main results first:

activation of mouse β3-adrenergic receptor [1] | Structure (SMILES) | activating adenylate cyclase in the presence of an agonist (β3-adrenergic receptor)
can be activated | CC(C)NCC(O)COc1cccc2[nH]ccc12 (centres unmarked) [pindolol] | –
can be activated | C=CCOc1ccccc1OCC(O)CNC(C)C (centres unmarked) [oxprenolol] | –
